Tested on: RA patients
Assay: [HDL] determination, Study 1 (RA patients, add-on to MTX)
Format: in vivo, human
Experimental: Double-blind, placebo-controlled add on study in subjects with moderately to severely active RA who have an inadequate response to methotrexate (MTX) (oral or parenteral).
595 subjects randomized to one of 6 dose regimens of Compound 1 (dosed as a [Compound 1:HCl:3H2O]) (3 dose levels administered either once or twice daily) or placebo on top of each subject's stable dose of MTX.
Compound 1 (dosed as a [Compound 1:HCl:3H2O]) is dosed for twelve weeks once daily (q.d.) (50 mg, 100 mg or 200 mg) or twice daily (b.i.d.) (25 mg, 50 mg or 100 mg); or placebo.
At Week 12, the subjects on placebo who have not achieved 20% improvement in swollen joint count (SJC66) and tender joint count (TJC68) are re-randomized automatically to receive Compound 1 (dosed as a [Compound 1:HCl:3H2O]) either at 100 mg q.d. or 50 mg b.i.d. doses in a blinded fashion; subjects on 50 mg q.d. who have not achieved 20% improvement in SJC66 and TJC68 will be assigned to 100 mg q.d. and subjects on 25 mg b.i.d. that have not achieved a 20% improvement in SJC66 and TJC68 will be assigned to 50 mg b.i.d. Subjects who switch treatment at week 12 are handled as if they discontinued at week 12 for the purpose of statistical analysis, whereas subjects in the other groups will maintain their randomized treatment until Week 24.
This assay relies on a homogeneous enzymatic colorimetric test. In the presence of magnesium ions, dextran sulfate selectively forms water-soluble complexes with LDL, VLDL and chylomicrons which are resistant to PEG-modified enzymes.
The cholesterol concentration of [HDL]-cholesterol is determined enzymatically by cholesterol esterase and cholesterol oxidase coupled with PEG to the amino groups (approx. 40%).
In the presence of peroxidase, the hydrogen peroxide generated reacts with 4-amino-antipyrine and Sodium N-(2-hydroxy-3-sulfopropyl)-3,5-dimethoxyaniline (HSDA) to form a purple-blue dye. The color intensity of this dye is directly proportional to the cholesterol concentration and is measured photometrically.
Human serum and plasma samples [HDL] determination was done on a Roche/Hitachi Cobas c 701/702 system which automatically calculate the analyte concentration of each sample. Samples containing precipitates are centrifuged before performing the assay.

[1] = 2 x 50 mg b.i.d. (N = 85), week 12
[2] = 2 x 100 mg b.i.d. (N = 84), week 1
[3] = 2 x 100 mg b.i.d. (N = 84), week 2
[4] = 2 x 100 mg b.i.d. (N = 84), week 4
[5] = 2 x 100 mg b.i.d. (N = 84), week 8
[6] = 2 x 100 mg b.i.d. (N = 84), week 12
[7] = continued 25 mg b.i.d (N = 69), week 1
[8] = continued 25 mg b.i.d (N = 69), week 2
[9] = continued 25 mg b.i.d (N = 69), week 4
[10] = continued 25 mg b.i.d (N = 69), week 8
[11] = continued 25 mg b.i.d (N = 69), week 12
[12] = continued 25 mg b.i.d (N = 69), week 16
[13] = continued 25 mg b.i.d (N = 69), week 20
[14] = continued 25 mg b.i.d (N = 69), week 24
[15] = continued 50 mg b.i.d. (N = 85), week 1
[16] = continued 50 mg b.i.d. (N = 85), week 2
[17] = continued 50 mg b.i.d. (N = 85), week 4
[18] = continued 50 mg b.i.d. (N = 85), week 8
[19] = continued 50 mg b.i.d. (N = 85), week 12
[20] = continued 50 mg b.i.d. (N = 85), week 16
[21] = continued 50 mg b.i.d. (N = 85), week 20
[22] = continued 50 mg b.i.d. (N = 85), week 24
[23] = continued 50 mg q.d. (N = 63), week 1
[24] = continued 50 mg q.d. (N = 63), week 2

O=C(Nc1nc2cccc(-c3ccc(CN4CCS(=O)(=O)CC4)cc3)n2n1)C1CC1 [Compound 1, cyclopropanecarboxylic acid {5-[4-(1,1-dioxo-thiomorpholin-4-ylmethyl)-phenyl]-[1,2,4]triazolo[1,5-a]pyridin-2yl}-amide]
[HDL] Mean CFB - 12 weeks results [1]: 0.10 mmol/L
[HDL] Mean percentage CFB - 12 weeks results [1]: 9%
[HDL] Median CFB - 12 weeks results [1]: 0.10 mmol/L
[HDL] Mean CFB - 12 weeks results [2]: 0.12 mmol/L
[HDL] Mean percentage CFB - 12 weeks results [2]: 9%
[HDL] Median CFB - 12 weeks results [2]: 0.10 mmol/L
[HDL] Mean CFB - 12 weeks results [3]: 0.20 mmol/L
[HDL] Mean percentage CFB - 12 weeks results [3]: 15%
[HDL] Median CFB - 12 weeks results [3]: 0.18 mmol/L
[HDL] Mean CFB - 12 weeks results [4]: 0.25 mmol/L
[HDL] Mean percentage CFB - 12 weeks results [4]: 20%
[HDL] Median CFB - 12 weeks results [4]: 0.25 mmol/L
[HDL] Mean CFB - 12 weeks results [5]: 0.26 mmol/L
[HDL] Mean percentage CFB - 12 weeks results [5]: 21%
[HDL] Median CFB - 12 weeks results [5]: 0.25 mmol/L
[HDL] Mean CFB - 12 weeks results [6]: 0.30 mmol/L
[HDL] Mean percentage CFB - 12 weeks results [6]: 23%
[HDL] Median CFB - 12 weeks results [6]: 0.25 mmol/L
[HDL] Mean CFB - 24 weeks results [7]: 0.01 mmol/L
[HDL] Mean percentage CFB - 24 weeks results [7]: 0.74%
[HDL] Median CFB - 24 weeks results [7]: 0.00 mmol/L
[HDL] Mean CFB - 24 weeks results [8]: 0.05 mmol/L
[HDL] Mean percentage CFB - 24 weeks results [8]: 3.77%
[HDL] Median CFB - 24 weeks results [8]: 0.05 mmol/L
[HDL] Mean CFB - 24 weeks results [9]: 0.07 mmol/L
[HDL] Mean percentage CFB - 24 weeks results [9]: 5.04%
[HDL] Median CFB - 24 weeks results [9]: 0.08 mmol/L
[HDL] Mean CFB - 24 weeks results [10]: 0.08 mmol/L
[HDL] Mean percentage CFB - 24 weeks results [10]: 6.08%
[HDL] Median CFB - 24 weeks results [10]: 0.10 mmol/L
[HDL] Mean CFB - 24 weeks results [11]: 0.07 mmol/L
[HDL] Mean percentage CFB - 24 weeks results [11]: 5.78%
[HDL] Median CFB - 24 weeks results [11]: 0.05 mmol/L
[HDL] Mean CFB - 24 weeks results [12]: 0.08 mmol/L
[HDL] Mean percentage CFB - 24 weeks results [12]: 6.74%
[HDL] Median CFB - 24 weeks results [12]: 0.05 mmol/L
[HDL] Mean CFB - 24 weeks results [13]: 0.05 mmol/L
[HDL] Mean percentage CFB - 24 weeks results [13]: 5.08%
[HDL] Median CFB - 24 weeks results [13]: 0.07 mmol/L
[HDL] Mean CFB - 24 weeks results [14]: 0.08 mmol/L
[HDL] Mean percentage CFB - 24 weeks results [14]: 6.59%
[HDL] Median CFB - 24 weeks results [14]: 0.09 mmol/L
[HDL] Mean CFB - 24 weeks results [15]: 0.03 mmol/L
[HDL] Mean percentage CFB - 24 weeks results [15]: 4.29%
[HDL] Median CFB - 24 weeks results [15]: 0.05 mmol/L
[HDL] Mean CFB - 24 weeks results [16]: 0.12 mmol/L
[HDL] Mean percentage CFB - 24 weeks results [16]: 9.99%
[HDL] Median CFB - 24 weeks results [16]: 0.10 mmol/L
[HDL] Mean CFB - 24 weeks results [17]: 0.13 mmol/L
[HDL] Mean percentage CFB - 24 weeks results [17]: 11.50%
[HDL] Median CFB - 24 weeks results [17]: 0.13 mmol/L
[HDL] Mean CFB - 24 weeks results [18]: 0.13 mmol/L
[HDL] Mean percentage CFB - 24 weeks results [18]: 11.21%
[HDL] Median CFB - 24 weeks results [18]: 0.14 mmol/L
[HDL] Mean CFB - 24 weeks results [19]: 0.10 mmol/L
[HDL] Mean percentage CFB - 24 weeks results [19]: 9.27%
[HDL] Median CFB - 24 weeks results [19]: 0.10 mmol/L
[HDL] Mean CFB - 24 weeks results [20]: 0.13 mmol/L
[HDL] Mean percentage CFB - 24 weeks results [20]: 11.13%
[HDL] Median CFB - 24 weeks results [20]: 0.15 mmol/L
[HDL] Mean CFB - 24 weeks results [21]: 0.15 mmol/L
[HDL] Mean percentage CFB - 24 weeks results [21]: 12.24%
[HDL] Median CFB - 24 weeks results [21]: 0.16 mmol/L
[HDL] Mean CFB - 24 weeks results [22]: 0.11 mmol/L
[HDL] Mean percentage CFB - 24 weeks results [22]: 10.05%
[HDL] Median CFB - 24 weeks results [22]: 0.12 mmol/L
[HDL] Mean CFB - 24 weeks results [23]: 0.02 mmol/L
[HDL] Mean percentage CFB - 24 weeks results [23]: 1.75%
[HDL] Median CFB - 24 weeks results [23]: 0.01 mmol/L
[HDL] Mean CFB - 24 weeks results [24]: 0.07 mmol/L
[HDL] Mean percentage CFB - 24 weeks results [24]: 4.74%
[HDL] Median CFB - 24 weeks results [24]: 0.08 mmol/L
[HDL] Mean CFB - 24 weeks results (continued 50 mg q.d. (N = 63), week 4): 0.06 mmol/L

— US10376520B2, “Methods for the treatment of cardiovascular disorders” (Galapagos NV, priority 2015, dated 2019)
